Marks after values point to notes of the source that are not given here.
Tests used:
UGT1A9 = target: T1, UGT1A9 (Homo sapiens, UniProt O60656); experiment: Enzyme systems in vitro: UGT1A9; format: in vitro ADME
T1 sequence (O60656 26-530): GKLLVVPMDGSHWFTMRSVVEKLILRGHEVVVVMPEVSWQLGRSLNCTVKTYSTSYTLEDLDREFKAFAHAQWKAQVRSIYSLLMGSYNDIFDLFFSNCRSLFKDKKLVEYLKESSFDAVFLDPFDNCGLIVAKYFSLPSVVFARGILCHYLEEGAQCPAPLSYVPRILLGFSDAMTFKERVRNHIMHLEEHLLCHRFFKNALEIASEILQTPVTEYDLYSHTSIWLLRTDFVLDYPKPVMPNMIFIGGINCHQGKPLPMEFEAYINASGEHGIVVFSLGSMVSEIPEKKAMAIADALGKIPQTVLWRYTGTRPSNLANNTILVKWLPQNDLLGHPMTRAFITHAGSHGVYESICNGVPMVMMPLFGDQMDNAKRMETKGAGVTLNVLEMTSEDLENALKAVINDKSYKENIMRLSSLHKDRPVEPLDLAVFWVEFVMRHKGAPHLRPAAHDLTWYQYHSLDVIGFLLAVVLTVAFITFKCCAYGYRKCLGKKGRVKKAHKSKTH

[1] = Pharmacokinetics in healthy subjects; format: in vivo, human
Sprague-Dawley rats = experiment: Embryo-fetal developmental toxicity study in Sprague-Dawley rats (Example 3)
Experimental: For this study, a total of 140 time-mated female rats (approximately 8 to 10 weeks of age) were obtained from Charles River Laboratories, Raleigh, North Carolina, and acclimated from the time of arrival until the time of dosing on GD 6. During the acclimation period, the animals were observed twice daily with respect to general health and any signs of disease. All animals were given a detailed clinical examination and body weights were recorded prior to selection. […] Food consumption was collected during the acclimation period.
Animals received in-life and postmorten evaluations. […] All fetuses were given an external and visceral or skeletal examination.
Detailed clinical observations were made daily from GD 6 through 20 (4 hours±1 hour postdose on dosing days).
Food consumption for main study animals was measured and recorded on the corresponding body weight days and calculated for the same intervals.
The placentae were examined grossly.
The foci, if detected, were considered early resorptions, and data from this female were included in mean calculations

[2] = single oral dose of radiolabeled belumosudil

CC(C)NC(=O)COc1cccc(-c2nc(Nc3ccc4[nH]ncc4c3)c3ccccc3n2)c1 [belumosudil, 2-{3-[4-(1H-indazol-5-ylamino)-2-quinazolinyl]phenoxy}-N-(propan-2-yl) acetamide]
UGT1A9 inhibition (UGT1A9): inhibitor | Tmax ([1]; human, in vivo, oral, single dose, read-out: delay of median Tmax with high-fat and high-calorie meal): 30 min | Vd ([1]; human, in vivo, single dose, geo CV % 67.7%, read-out: geometric mean volume of distribution): 184 L | increase in AUC with high-fat and high-calorie meal compared to fasted state ([1]; single dose): 2 times | increase in Cmax with high-fat and high-calorie meal compared to fasted state ([1]; single dose): 2.2 times | mean (% CV) bioavailability ([1]; single dose): 64% (17%) | radioactivity recovered in feces [1, 2]: 85% | radioactivity recovered in urine [1, 2]: less than 5% | recovered in feces as unchanged [1, 2]: 30% | Maternal Body Weight Change GD 6-9 (Sprague-Dawley rats; 15 mg base/kg/day): 10.0 g | Maternal Body Weight Change GD 6-18 (Sprague-Dawley rats; 15 mg base/kg/day): 93.8 g | Maternal Body Weight Change GD 6-20 (Sprague-Dawley rats; 15 mg base/kg/day): 127.9 g | Maternal Body Weight Change GD 18-20 (Sprague-Dawley rats; 15 mg base/kg/day): 34.0 g | Maternal Body Weight GD 9 (Sprague-Dawley rats; 15 mg base/kg/day): 231.7 g | Maternal Body Weight GD 12 (Sprague-Dawley rats; 15 mg base/kg/day): 257.0 g | Maternal Body Weight GD 15 (Sprague-Dawley rats; 15 mg base/kg/day): 272.8 g | Maternal Body Weight GD 18 (Sprague-Dawley rats; 15 mg base/kg/day): 315.5 g | Maternal Body Weight GD 20 (Sprague-Dawley rats; 15 mg base/kg/day): 349.6 g | Maternal Food Consumption GD 6-9 (Sprague-Dawley rats; 15 mg base/kg/day): 19.0 | Maternal Food Consumption GD 6-18 (Sprague-Dawley rats; 15 mg base/kg/day): 22.6 | Maternal Food Consumption GD 6-20 (Sprague-Dawley rats; 15 mg base/kg/day): 23.2 | Maternal Food Consumption GD 18-20 (Sprague-Dawley rats; 15 mg base/kg/day): 27.3 | Mean Fetal Body Weight Females (Sprague-Dawley rats; 15 mg base/kg/day): 4.00 g | Mean Fetal Body Weight Genders Combined (Sprague-Dawley rats; 15 mg base/kg/day): 4.10 g | Mean Fetal Body Weight Males (Sprague-Dawley rats; 15 mg base/kg/day): 4.19 g | Adjusted Final Body Weight, Mean (Sprague-Dawley rats; 15 mg base/kg/day (N = 25)): 278.5 g | Adjusted Weight Change From Day 6, Mean (Sprague-Dawley rats; 15 mg base/kg/day (N = 25)): 56.8 | Final Body Weight, Mean (Sprague-Dawley rats; 15 mg base/kg/day (N = 25)): 349.6 g | Gravid Uterine Weight, Mean (Sprague-Dawley rats; 15 mg base/kg/day (N = 25)): 71.0 g | Discharge, Brown, Vulva, times observed/animals (Sprague-Dawley rats; 15 mg base/kg/day, GD 6-20): 1/1 | Discharge, Red, Vulva, times observed/animals (Sprague-Dawley rats; 15 mg base/kg/day, GD 6-20): 0/0 | Ear/portion of ear missing, Ear/left, times observed/animals (Sprague-Dawley rats; 15 mg base/kg/day, GD 6-20): 13/1 | Hair sparse, Abdominal region, times observed/animals (Sprague-Dawley rats; 15 mg base/kg/day, GD 6-20): 7/1 | Hair sparse, Cervical region, times observed/animals (Sprague-Dawley rats; 15 mg base/kg/day, GD 6-20): 0/0 | Hair sparse, Forefoot/left, times observed/animals (Sprague-Dawley rats; 15 mg base/kg/day, GD 6-20): 4/2 | Hair sparse, Forefoot/right, times observed/animals (Sprague-Dawley rats; 15 mg base/kg/day, GD 6-20): 0/0 | Hair sparse, Forelimb/left, times observed/animals (Sprague-Dawley rats; 15 mg base/kg/day, GD 6-20): 12/3 | Hair sparse, Forelimb/right, times observed/animals (Sprague-Dawley rats; 15 mg base/kg/day, GD 6-20): 17/3 | Hair sparse, Hind limb/left, times observed/animals (Sprague-Dawley rats; 15 mg base/kg/day, GD 6-20): 0/0 | Hair sparse, Hind limb/right, times observed/animals (Sprague-Dawley rats; 15 mg base/kg/day, GD 6-20): 0/0 | Hair sparse, Lumbar region, times observed/animals (Sprague-Dawley rats; 15 mg base/kg/day, GD 6-20): 0/0 | Hair sparse, Thoracic region, times observed/animals (Sprague-Dawley rats; 15 mg base/kg/day, GD 6-20): 0/0 | Scabbed area, Face, times observed/animals (Sprague-Dawley rats; 15 mg base/kg/day, GD 6-20): 7/1 | Scabbed area, Forelimb/right, times observed/animals (Sprague-Dawley rats; 15 mg base/kg/day, GD 6-20): 4/1 | Scabbed area, Tail, times observed/animals (Sprague-Dawley rats; 15 mg base/kg/day, GD 6-20): 0/0 | Scabbed area, Thoracic region, times observed/animals (Sprague-Dawley rats; 15 mg base/kg/day, GD 6-20): 1/1 | Tail missing - portion, times observed/animals (Sprague-Dawley rats; 15 mg base/kg/day, GD 6-20): 0/0 | Maternal Body Weight Change GD 6-9 (Sprague-Dawley rats; 50 mg base/kg/day): 6.2^b g | Maternal Body Weight Change GD 6-18 (Sprague-Dawley rats; 50 mg base/kg/day): 78.8^b g | Maternal Body Weight Change GD 6-20 (Sprague-Dawley rats; 50 mg base/kg/day): 115.9^b g | Maternal Body Weight Change GD 18-20 (Sprague-Dawley rats; 50 mg base/kg/day): 37.1 g | Maternal Body Weight GD 9 (Sprague-Dawley rats; 50 mg base/kg/day): 225.5^a g | Maternal Body Weight GD 12 (Sprague-Dawley rats; 50 mg base/kg/day): 246.3^b g | Maternal Body Weight GD 15 (Sprague-Dawley rats; 50 mg base/kg/day): 262.6^b g | Maternal Body Weight GD 18 (Sprague-Dawley rats; 50 mg base/kg/day): 298.1^b g | Maternal Body Weight GD 20 (Sprague-Dawley rats; 50 mg base/kg/day): 335.2^b g | Maternal Food Consumption GD 6-9 (Sprague-Dawley rats; 50 mg base/kg/day): 15.5^b | Maternal Food Consumption GD 6-18 (Sprague-Dawley rats; 50 mg base/kg/day): 20.0^b | Maternal Food Consumption GD 6-20 (Sprague-Dawley rats; 50 mg base/kg/day): 21.3^b | Maternal Food Consumption GD 18-20 (Sprague-Dawley rats; 50 mg base/kg/day): 29.0 | Mean Fetal Body Weight Females (Sprague-Dawley rats; 50 mg base/kg/day): 3.94 g | Mean Fetal Body Weight Genders Combined (Sprague-Dawley rats; 50 mg base/kg/day): 4.06 g | Mean Fetal Body Weight Males (Sprague-Dawley rats; 50 mg base/kg/day): 4.19 g | Adjusted Final Body Weight, Mean (Sprague-Dawley rats; 50 mg base/kg/day (N = 25)): 266.4^b g
